# In ChEMBL document CHEMBL3885881, “DrugMatrix”:
# Species on record: Rattus norvegicus
# Format: toxicity, organism-based, Sprague-Dawley
# Conditions: in vivo, 24 h, time 1 day, vehicle 100 % SALINE; for ABSOLUTE EOSINOPHIL / ABSOLUTE LYMPHOCYTE / ABSOLUTE MONOCYTE / ABSOLUTE SEGMENTED NEUTROPHIL / BASOPHIL / EOSINOPHIL / ERYTHROCYTE COUNT / HEMATOCRIT / HEMOGLOBIN / LEUKOCYTE COUNT / LYMPHOCYTE / MEAN CORPUSCULAR HEMOGLOBIN / MEAN CORPUSCULAR HEMOGLOBIN CONCENTRATION / MEAN CORPUSCULAR VOLUME / MONOCYTE / NEUTROPHIL / NUCLEATED RED BLOOD CELLS / PLATELET COUNT / ABSOLUTE BASOPHIL: tissue Blood; for ALANINE AMINOTRANSFERASE / ALKALINE PHOSPHATASE / ASPARTATE AMINOTRANSFERASE / BLOOD UREA NITROGEN / CARBON DIOXIDE / CHLORIDE / CHOLESTEROL / CREATININE / GLUCOSE / LACTATE DEHYDROGENASE / LIPASE / PHOSPHORUS / POTASSIUM / SODIUM / TOTAL BILIRUBIN / TOTAL PROTEIN / URIC ACID / ALBUMIN / CREATINE PHOSPHOKINASE: tissue Plasma
# [1] = ip, 0 mg/kg, vehicle control, route intraperitoneal, dose level Control
# [2] = ip, 1 mg/kg, route intraperitoneal, dose level High
# [3] = po, 0 mg/kg, vehicle control, route oral GAVAGE, dose level Control
# [4] = po, […], route oral GAVAGE, dose 7.5 mg/Kg, dose level High
# Description: DrugMatrix - Regimen: Single
smiles,measurement,setting,value
CC[C@H]1CN2CCc3cc(OC)c(OC)cc3[C@@H]2C[C@@H]1C[C@H]1NCCc2cc(OC)c(OC)cc21 [EMETINE],ABSOLUTE EOSINOPHIL,[1],77.5 CELLS/uL
same,ABSOLUTE LYMPHOCYTE,[1],12568.83 CELLS/uL
same,ABSOLUTE MONOCYTE,[1],704.67 CELLS/uL
same,ABSOLUTE SEGMENTED NEUTROPHIL,[1],2365.67 CELLS/uL
same,BASOPHIL,[1],0%
same,EOSINOPHIL,[1],0.5%
same,ERYTHROCYTE COUNT,[1],5.83 x10E6/uL
same,HEMATOCRIT,[1],36.08%
same,HEMOGLOBIN,[1],13.22 G/DL
same,LEUKOCYTE COUNT,[1],15.72 x10E3/uL
same,LYMPHOCYTE,[1],80%
same,MEAN CORPUSCULAR HEMOGLOBIN,[1],22.68 pg
same,MEAN CORPUSCULAR HEMOGLOBIN CONCENTRATION,[1],36.63 G/DL
same,MEAN CORPUSCULAR VOLUME,[1],61.88 fL
same,MONOCYTE,[1],4.5%
same,NEUTROPHIL,[1],15%
same,NUCLEATED RED BLOOD CELLS,[1],0 /100WBC
same,PLATELET COUNT,[1],1020.5 x10E3/uL
same,ALANINE AMINOTRANSFERASE,[1],43.33 u/L
same,ALKALINE PHOSPHATASE,[1],368 u/L
same,ASPARTATE AMINOTRANSFERASE,[1],93 u/L
same,BLOOD UREA NITROGEN,[1],12.33 mg/dL
same,CARBON DIOXIDE,[1],27.17 mmol/L
same,CHLORIDE,[1],99.5 MEQ/L
same,CHOLESTEROL,[1],65.67 mg/dL
same,CREATININE,[1],0.23 mg/dL
same,GLUCOSE,[1],181.67 mg/dL
same,LACTATE DEHYDROGENASE,[1],380.17 u/L
same,LIPASE,[1],9.33 u/L
same,PHOSPHORUS,[1],13.1 mg/dL
same,POTASSIUM,[1],6.28 MEQ/L
same,SODIUM,[1],143.03 MEQ/L
same,TOTAL BILIRUBIN,[1],0.18 mg/dL
same,TOTAL PROTEIN,[1],6.12 G/DL
same,URIC ACID,[1],2.47 mg/dL
same,ABSOLUTE EOSINOPHIL,[2],92 CELLS/uL
same,ABSOLUTE LYMPHOCYTE,[2],11430 CELLS/uL
same,ABSOLUTE MONOCYTE,[2],510 CELLS/uL
same,ABSOLUTE SEGMENTED NEUTROPHIL,[2],1901.33 CELLS/uL
same,BASOPHIL,[2],0%
same,EOSINOPHIL,[2],0.67%
same,ERYTHROCYTE COUNT,[2],5.8 x10E6/uL
same,HEMATOCRIT,[2],35.23%
same,HEMOGLOBIN,[2],12.63 G/DL
same,LEUKOCYTE COUNT,[2],13.93 x10E3/uL
same,LYMPHOCYTE,[2],82%
same,MEAN CORPUSCULAR HEMOGLOBIN,[2],21.77 pg
same,MEAN CORPUSCULAR HEMOGLOBIN CONCENTRATION,[2],35.87 G/DL
same,MEAN CORPUSCULAR VOLUME,[2],60.83 fL
same,MONOCYTE,[2],3.67%
same,NEUTROPHIL,[2],13.67%
same,NUCLEATED RED BLOOD CELLS,[2],0 /100WBC
same,PLATELET COUNT,[2],1110.67 x10E3/uL
same,ALANINE AMINOTRANSFERASE,[2],45.67 u/L
same,ALKALINE PHOSPHATASE,[2],344 u/L
same,ASPARTATE AMINOTRANSFERASE,[2],124 u/L
same,BLOOD UREA NITROGEN,[2],13.33 mg/dL
same,CARBON DIOXIDE,[2],27 mmol/L
same,CHLORIDE,[2],100 MEQ/L
same,CHOLESTEROL,[2],66.67 mg/dL
same,CREATININE,[2],0.22 mg/dL
same,GLUCOSE,[2],182 mg/dL
same,LACTATE DEHYDROGENASE,[2],467.33 u/L
same,LIPASE,[2],9.33 u/L
same,PHOSPHORUS,[2],14.17 mg/dL
same,POTASSIUM,[2],6.56 MEQ/L
same,SODIUM,[2],143.9 MEQ/L
same,TOTAL BILIRUBIN,[2],0.17 mg/dL
same,TOTAL PROTEIN,[2],6.07 G/DL
same,URIC ACID,[2],2.17 mg/dL
"Nc1ncnc2c1ncn2[C@@H]1O[C@H](CO)[C@@H](O)[C@H]1F [2'-BETA-FLUORO-2',3'-DEOXYADENOSINE]",ABSOLUTE BASOPHIL,[3],73.3 cells/µL
same,ABSOLUTE EOSINOPHIL,[3],86.7 cells/µL
same,ABSOLUTE LYMPHOCYTE,[3],8400 cells/µL
same,ABSOLUTE MONOCYTE,[3],350 cells/µL
same,BASOPHIL,[3],0.63%
same,EOSINOPHIL,[3],0.73%
same,ERYTHROCYTE COUNT,[3],6.55 x10E6/uL
same,HEMATOCRIT,[3],42.83%
same,HEMOGLOBIN,[3],13.6 G/DL
same,LEUKOCYTE COUNT,[3],11.33 x10E3/uL
same,LYMPHOCYTE,[3],74.77%
same,MEAN CORPUSCULAR HEMOGLOBIN,[3],20.77 pg
same,MEAN CORPUSCULAR HEMOGLOBIN CONCENTRATION,[3],31.7 G/DL
same,MEAN CORPUSCULAR VOLUME,[3],65.53 fL
same,MONOCYTE,[3],3%
same,NEUTROPHIL,[3],20.2%
same,PLATELET COUNT,[3],1394.33 x10E3/uL
same,ALANINE AMINOTRANSFERASE,[3],34 u/L
same,ALBUMIN,[3],4.03 G/DL
same,ALKALINE PHOSPHATASE,[3],345.33 u/L
same,ASPARTATE AMINOTRANSFERASE,[3],69.67 u/L
same,BLOOD UREA NITROGEN,[3],14.33 mg/dL
same,CARBON DIOXIDE,[3],46 mmol/L
same,CHLORIDE,[3],102.67 MEQ/L
same,CHOLESTEROL,[3],85 mg/dL
same,CREATINE PHOSPHOKINASE,[3],292 u/L
same,CREATININE,[3],0.2 mg/dL
same,GLUCOSE,[3],168 mg/dL
same,LACTATE DEHYDROGENASE,[3],114.33 u/L
same,LIPASE,[3],13 u/L
same,PHOSPHORUS,[3],11.2 mg/dL
same,POTASSIUM,[3],7.07 MEQ/L
same,SODIUM,[3],144.67 MEQ/L
same,TOTAL BILIRUBIN,[3],0.27 mg/dL
same,TOTAL PROTEIN,[3],6.57 G/DL
same,URIC ACID,[3],0.73 mg/dL
same,ABSOLUTE BASOPHIL,[4],36.7 cells/µL
same,ABSOLUTE EOSINOPHIL,[4],40 cells/µL
same,ABSOLUTE LYMPHOCYTE,[4],7660 cells/µL
same,ABSOLUTE MONOCYTE,[4],240 cells/µL
same,BASOPHIL,[4],0.37%
same,EOSINOPHIL,[4],0.43%
same,ERYTHROCYTE COUNT,[4],7.06 x10E6/uL
same,HEMATOCRIT,[4],46.1%
same,HEMOGLOBIN,[4],14.4 G/DL
same,LEUKOCYTE COUNT,[4],9.56 x10E3/uL
same,LYMPHOCYTE,[4],79.8%
same,MEAN CORPUSCULAR HEMOGLOBIN,[4],20.4 pg
same,MEAN CORPUSCULAR HEMOGLOBIN CONCENTRATION,[4],31.2 G/DL
same,MEAN CORPUSCULAR VOLUME,[4],65.37 fL
same,MONOCYTE,[4],2.57%
same,NEUTROPHIL,[4],16.23%
same,PLATELET COUNT,[4],1451.67 x10E3/uL
same,ALANINE AMINOTRANSFERASE,[4],40.67 u/L
same,ALBUMIN,[4],4.03 G/DL
same,ALKALINE PHOSPHATASE,[4],348 u/L
same,ASPARTATE AMINOTRANSFERASE,[4],71.67 u/L
same,BLOOD UREA NITROGEN,[4],15 mg/dL
same,CARBON DIOXIDE,[4],42.67 mmol/L
same,CHLORIDE,[4],103.33 MEQ/L
same,CHOLESTEROL,[4],98.67 mg/dL
same,CREATINE PHOSPHOKINASE,[4],439.67 u/L
same,CREATININE,[4],0.3 mg/dL
same,GLUCOSE,[4],185.67 mg/dL
same,LACTATE DEHYDROGENASE,[4],90 u/L
same,LIPASE,[4],12 u/L
same,PHOSPHORUS,[4],11.67 mg/dL
same,POTASSIUM,[4],6.3 MEQ/L
same,SODIUM,[4],146 MEQ/L
same,TOTAL BILIRUBIN,[4],0.27 mg/dL
same,TOTAL PROTEIN,[4],6.7 G/DL
same,URIC ACID,[4],0.97 mg/dL
